Measurements published in the supplement of paper PMC13207355.
Where a name gives a salt, the structure may show the parent alone.

Key:
Settings in all cases: exposure time: 72 h
E13 [1] = patient-derived glioblastoma stem cells of classical subtype; experiment: surviving fraction (nuclei count normalised to DMSO); higher = more cells surviving (less toxic)
E21 [2] = patient-derived glioblastoma stem cells of mesenchymal subtype; experiment: as above
E28 [3] = patient-derived glioblastoma stem cells of classical subtype; experiment: as above
E31 [4] = patient-derived glioblastoma stem cells of proneural subtype; experiment: as above
E34 [5] = patient-derived glioblastoma stem cells of proneural subtype; experiment: as above
E57 [6] = patient-derived glioblastoma stem cells of mesenchymal subtype; experiment: as above
FT3469 [7] = normal neural stem cell line; experiment: as above
E13 [8] = experiment: phenotypic distance (Euclidean, principal components) from DMSO controls (arbitrary units); higher = stronger morphological change
E21 [9] = experiment: as above
E28 [10] = experiment: as above
E31 [11] = experiment: as above
E34 [12] = experiment: as above
E57 [13] = experiment: as above
FT3469 [14] = experiment: as above
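Throughout, for phenotypic distance (Euclidean, principal components) from DMSO controls: cell Painting imaging in 384-well plates, CellProfiler features reduced to at least 20 principal components, Euclidean distance versus same-plate DMSO vehicle wells (0.1% v/v), median over six images per well.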
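Throughout, for surviving fraction (nuclei count normalised to DMSO): nuclei counted by high-content imaging of Hoechst-stained cells in laminin-coated 384-well plates, relative to 0.1% DMSO vehicle wells, with staurosporine as cell-death control.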

CCC1=C[C@@H]2CN(C1)Cc1c([nH]c3ccccc13)[C@@](C(=O)OC)(c1cc3c(cc1OC)N(C)[C@H]1[C@@](O)(C(=O)OC)[C@H](OC(C)=O)[C@]4(CC)C=CCN5CC[C@]31[C@@H]54)C2 [Vinorelbine Tartrate]
Settings | phenotypic distance | surviving fraction
E13 [1], 4.1 nM | – | 0.863
E13 [1], 12.3 nM | – | 0.903
E13 [1], 37 nM | – | 0.916
E13 [1], 111.1 nM | – | 0.907
E13 [1], 333.3 nM | – | 0.82
E13 [1], 1000 nM | – | 0.371
E13 [1], 3000 nM | – | 0.246
E13 [8], 4.1 nM | 1.1 | –
E13 [8], 12.3 nM | 1.18 | –
E13 [8], 37 nM | 1.26 | –
E13 [8], 111.1 nM | 1.7 | –
E13 [8], 333.3 nM | 2.71 | –
E13 [8], 1000 nM | 4.6 | –
E13 [8], 3000 nM | 6.33 | –
E21 [2], 4.1 nM | – | 0.868
E21 [2], 12.3 nM | – | 0.894
E21 [2], 37 nM | – | 0.926
E21 [2], 111.1 nM | – | 0.761
E21 [2], 333.3 nM | – | 0.586
E21 [2], 1000 nM | – | 0.169
E21 [2], 3000 nM | – | 0.1
E21 [9], 4.1 nM | 1.06 | –
E21 [9], 12.3 nM | 1.08 | –
E21 [9], 37 nM | 1.45 | –
E21 [9], 111.1 nM | 2.33 | –
E21 [9], 333.3 nM | 4.36 | –
E21 [9], 1000 nM | 7 | –
E21 [9], 3000 nM | 8.49 | –
E28 [3], 4.1 nM | – | 0.904
E28 [3], 12.3 nM | – | 0.815
E28 [3], 37 nM | – | 0.801
E28 [3], 111.1 nM | – | 0.749
E28 [3], 333.3 nM | – | 0.609
E28 [3], 1000 nM | – | 0.375
E28 [3], 3000 nM | – | 0.353
E28 [10], 4.1 nM | 0.584 | –
E28 [10], 12.3 nM | 0.83 | –
E28 [10], 37 nM | 0.727 | –
E28 [10], 111.1 nM | 1.31 | –
E28 [10], 333.3 nM | 2.18 | –
E28 [10], 1000 nM | 2.7 | –
E28 [10], 3000 nM | 3.22 | –
E31 [4], 4.1 nM | – | 0.794
E31 [4], 12.3 nM | – | 0.911
E31 [4], 37 nM | – | 0.749
E31 [4], 111.1 nM | – | 0.649
E31 [4], 333.3 nM | – | 0.37
E31 [4], 1000 nM | – | 0.126
E31 [4], 3000 nM | – | 0.0917
E31 [11], 4.1 nM | 0.666 | –
E31 [11], 12.3 nM | 0.627 | –
E31 [11], 37 nM | 0.856 | –
E31 [11], 111.1 nM | 1.44 | –
E31 [11], 333.3 nM | 3.01 | –
E31 [11], 1000 nM | 4.58 | –
E31 [11], 3000 nM | 5.73 | –
E34 [5], 4.1 nM | – | 1.05
E34 [5], 12.3 nM | – | 0.954
E34 [5], 37 nM | – | 0.856
E34 [5], 111.1 nM | – | 0.97
E34 [5], 333.3 nM | – | 0.822
E34 [5], 1000 nM | – | 0.57
E34 [5], 3000 nM | – | 0.402
E34 [12], 4.1 nM | 0.476 | –
E34 [12], 12.3 nM | 0.944 | –
E34 [12], 37 nM | 0.78 | –
E34 [12], 111.1 nM | 1.01 | –
E34 [12], 333.3 nM | 1.48 | –
E34 [12], 1000 nM | 2.84 | –
E34 [12], 3000 nM | 4.02 | –
E57 [6], 4.1 nM | – | 0.969
E57 [6], 12.3 nM | – | 1.04
E57 [6], 37 nM | – | 1.04
E57 [6], 111.1 nM | – | 1.02
E57 [6], 333.3 nM | – | 0.899
E57 [6], 1000 nM | – | 0.447
E57 [6], 3000 nM | – | 0.102
E57 [13], 4.1 nM | 0.512 | –
E57 [13], 12.3 nM | 0.688 | –
E57 [13], 37 nM | 0.822 | –
E57 [13], 111.1 nM | 0.746 | –
E57 [13], 333.3 nM | 3.9 | –
E57 [13], 1000 nM | 4.81 | –
E57 [13], 3000 nM | 6.16 | –
FT3469 [7], 4.1 nM | – | 0.953
FT3469 [7], 12.3 nM | – | 0.829
FT3469 [7], 37 nM | – | 0.834
FT3469 [7], 111.1 nM | – | 0.827
FT3469 [7], 333.3 nM | – | 0.569
FT3469 [7], 1000 nM | – | 0.553
FT3469 [7], 3000 nM | – | 0.56
FT3469 [14], 4.1 nM | 0.854 | –
FT3469 [14], 12.3 nM | 1.01 | –
FT3469 [14], 37 nM | 1.01 | –
FT3469 [14], 111.1 nM | 1.12 | –
FT3469 [14], 333.3 nM | 2.43 | –
FT3469 [14], 1000 nM | 4.88 | –
FT3469 [14], 3000 nM | 3.13 | –

CC[C@@H]1C(=O)N(C)c2cnc(Nc3ccc(C(=O)N[C@H]4CC[C@H](N5CCN(CC6CC6)CC5)CC4)cc3OC)nc2N1C(C)C [Volasertib]
Settings | phenotypic distance | surviving fraction
E13 [1], 4.1 nM | – | 0.449
E13 [1], 12.3 nM | – | 0.418
E13 [1], 37 nM | – | 0.387
E13 [1], 111.1 nM | – | 0.387
E13 [1], 333.3 nM | – | 0.348
E13 [1], 1000 nM | – | 0.301
E13 [1], 3000 nM | – | 0.322
E13 [8], 4.1 nM | 4.53 | –
E13 [8], 12.3 nM | 4.86 | –
E13 [8], 37 nM | 5.16 | –
E13 [8], 111.1 nM | 4.97 | –
E13 [8], 333.3 nM | 4.79 | –
E13 [8], 1000 nM | 5.82 | –
E13 [8], 3000 nM | 5.69 | –
E21 [2], 4.1 nM | – | 0.459
E21 [2], 12.3 nM | – | 0.447
E21 [2], 37 nM | – | 0.372
E21 [2], 111.1 nM | – | 0.289
E21 [2], 333.3 nM | – | 0.207
E21 [2], 1000 nM | – | 0.205
E21 [2], 3000 nM | – | 0.274
E21 [9], 4.1 nM | 2.95 | –
E21 [9], 12.3 nM | 3.49 | –
E21 [9], 37 nM | 3.86 | –
E21 [9], 111.1 nM | 6.48 | –
E21 [9], 333.3 nM | 5.25 | –
E21 [9], 1000 nM | 6.04 | –
E21 [9], 3000 nM | 7.2 | –
E28 [3], 4.1 nM | – | 0.613
E28 [3], 12.3 nM | – | 0.688
E28 [3], 37 nM | – | 0.648
E28 [3], 111.1 nM | – | 0.439
E28 [3], 333.3 nM | – | 0.459
E28 [3], 1000 nM | – | 0.386
E28 [3], 3000 nM | – | 0.39
E28 [10], 4.1 nM | 1.97 | –
E28 [10], 12.3 nM | 1.64 | –
E28 [10], 37 nM | 1.4 | –
E28 [10], 111.1 nM | 2.98 | –
E28 [10], 333.3 nM | 2.89 | –
E28 [10], 1000 nM | 3.11 | –
E28 [10], 3000 nM | 4.22 | –
E31 [4], 4.1 nM | – | 0.275
E31 [4], 12.3 nM | – | 0.237
E31 [4], 37 nM | – | 0.251
E31 [4], 111.1 nM | – | 0.163
E31 [4], 333.3 nM | – | 0.161
E31 [4], 1000 nM | – | 0.148
E31 [4], 3000 nM | – | 0.178
E31 [11], 4.1 nM | 2.88 | –
E31 [11], 12.3 nM | 2.73 | –
E31 [11], 37 nM | 2.37 | –
E31 [11], 111.1 nM | 3.54 | –
E31 [11], 333.3 nM | 3.91 | –
E31 [11], 1000 nM | 4.92 | –
E31 [11], 3000 nM | 3.6 | –
E34 [5], 4.1 nM | – | 0.769
E34 [5], 12.3 nM | – | 0.695
E34 [5], 37 nM | – | 0.644
E34 [5], 111.1 nM | – | 0.624
E34 [5], 333.3 nM | – | 0.503
E34 [5], 1000 nM | – | 0.414
E34 [5], 3000 nM | – | 0.501
E34 [12], 4.1 nM | 1.64 | –
E34 [12], 12.3 nM | 1.44 | –
E34 [12], 37 nM | 2.23 | –
E34 [12], 111.1 nM | 2.45 | –
E34 [12], 333.3 nM | 3.05 | –
E34 [12], 1000 nM | 4.15 | –
E34 [12], 3000 nM | 3.53 | –
E57 [6], 4.1 nM | – | 0.623
E57 [6], 12.3 nM | – | 0.679
E57 [6], 37 nM | – | 0.463
E57 [6], 111.1 nM | – | 0.205
E57 [6], 333.3 nM | – | 0.123
E57 [6], 1000 nM | – | 0.12
E57 [6], 3000 nM | – | 0.141
E57 [13], 4.1 nM | 2.53 | –
E57 [13], 12.3 nM | 2.05 | –
E57 [13], 37 nM | 3.22 | –
E57 [13], 111.1 nM | 7.13 | –
E57 [13], 333.3 nM | 6.28 | –
E57 [13], 1000 nM | 6.68 | –
E57 [13], 3000 nM | 8.42 | –
FT3469 [7], 4.1 nM | – | 0.874
FT3469 [7], 12.3 nM | – | 0.885
FT3469 [7], 37 nM | – | 0.808
FT3469 [7], 111.1 nM | – | 0.646
FT3469 [7], 333.3 nM | – | 0.588
FT3469 [7], 1000 nM | – | 0.506
FT3469 [7], 3000 nM | – | 0.544
FT3469 [14], 4.1 nM | 2.22 | –
FT3469 [14], 12.3 nM | 1.25 | –
FT3469 [14], 37 nM | 1.74 | –
FT3469 [14], 111.1 nM | 2.57 | –
FT3469 [14], 333.3 nM | 2.83 | –
FT3469 [14], 1000 nM | 3.25 | –
FT3469 [14], 3000 nM | 2.99 | –
